# Several values for one entry are separate records, joined by “and”; a condition that tells them apart may be missing. Identical values can stand only once. Inconclusive results and toxic doses are left out.
# System: BDF1 mice, P388 leukemia ip, median survival T/C
# Experiment: NCI In Vivo Anticancer Drug Screen. Data for tumor model P388 Leukemia (intraperitoneal) in B6D2F1 (BDF1) mice
# Conditions: endpoint: median survival time, higher = longer survival
# Outline: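 T/C = treated-group survival ÷ vehicle-control survival; tumour transplanted into mice before dosing.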
# [1] = dose: 25.0 mg/kg/injection, schedule: Q01DX009 (ip), vehicle: saline
# [2] = dose: 200.0 mg/kg/injection, schedule: Q04DX003 (ip), vehicle: saline with Tween-80
# [3] = dose: 400.0 mg/kg/injection, schedule: Q04DX003 (ip), vehicle: saline with Tween-80
# [4] = dose: 400.0 mg/kg/injection, schedule: Q04DX003 (ip), vehicle: saline
# [5] = dose: 50.0 mg/kg/injection, schedule: Q01DX009 (ip), vehicle: saline with Tween-80
# [6] = dose: 100.0 mg/kg/injection, schedule: Q01DX009 (ip), vehicle: saline with Tween-80
# [7] = dose: 100.0 mg/kg/injection, schedule: Q04DX003 (ip), vehicle: saline
# [8] = dose: 200.0 mg/kg/injection, schedule: Q04DX003 (ip), vehicle: saline
smiles,measurement,setting,value
O=C(Nc1ccc(C2=NCCCN2)cc1)c1ccc(C(=O)Nc2ccc(C3=NCCCN3)cc2)nc1,T/C,"dose: 0.85 mg/kg/injection, schedule: Q01DX009 (ip), vehicle: saline",92 % of control
same,T/C,"dose: 1.3 mg/kg/injection, schedule: Q01DX009 (ip), vehicle: saline",103 % of control
same,T/C,"dose: 3.0 mg/kg/injection, schedule: Q01DX009 (ip), vehicle: saline",155 % of control
same,T/C,"dose: 5.0 mg/kg/injection, schedule: Q01DX009 (ip), vehicle: saline",175 % of control
same,T/C,"dose: 8.0 mg/kg/injection, schedule: Q01DX009 (ip), vehicle: saline",195 % of control
same,T/C,"dose: 10.0 mg/kg/injection, schedule: Q01DX009 (ip), vehicle: saline with Tween-80",122 % of control
same,T/C,"dose: 12.0 mg/kg/injection, schedule: Q01DX009 (ip), vehicle: saline",153 % of control
same,T/C,"dose: 12.5 mg/kg/injection, schedule: Q04DX003 (ip), vehicle: saline",115 % of control
same,T/C,"dose: 16.5 mg/kg/injection, schedule: Q04DX003 (ip), vehicle: saline",118 % of control
same,T/C,"dose: 18.0 mg/kg/injection, schedule: Q01DX009 (ip), vehicle: saline",226 % of control
same,T/C,[1],196 % of control
CS(=O)(=O)OCC(=O)NCCNC(=O)COS(C)(=O)=O,T/C,[2],152 % of control
same,T/C,"dose: 264.0 mg/kg/injection, schedule: Q04DX003 (ip), vehicle: saline with Tween-80",160 % of control
same,T/C,"dose: 264.0 mg/kg/injection, schedule: Q04DX003 (ip), vehicle: saline",165 % of control
same,T/C,[3],169 % of control and 180 % of control
same,T/C,[4],152 % of control
same,T/C,"dose: 600.0 mg/kg/injection, schedule: Q04DX003 (ip), vehicle: saline",182 % of control
CC12CCOC(=O)/C=C/C=C/C(=O)OC3CC4OC5C6OC6(C)CCC5(COC(=O)C1O2)C3(C)C41CO1 (stereo not drawn),T/C,"dose: 2.5 mg/kg/injection, schedule: Q01DX009 (ip), vehicle: saline + alcohol",154 % of control
same,T/C,"dose: 10.0 mg/kg/injection, schedule: Q01DX009 (ip), vehicle: saline + alcohol",157 % of control
OC(COc1cccc(C(F)(F)F)c1)CN1CCN(c2ccc(F)cc2)CC1 (stereo not drawn),T/C,"dose: 25.0 mg/kg/injection, schedule: Q01DX009 (ip), vehicle: saline with Tween-80",96 % of control
same,T/C,[5],96 % of control
same,T/C,[6],118 % of control
CCCN1c2c(nc(N)[nH]c2=O)NCC1CNc1ccc(C(=O)NC(CCC(=O)O)C(=O)O)cc1 (stereo not drawn),T/C,"dose: 100.0 mg/kg/injection, schedule: Q01DX009 (ip), vehicle: saline",108 % of control
same,T/C,[7],112 % of control
same,T/C,"dose: 200.0 mg/kg/injection, schedule: Q01DX009 (ip), vehicle: saline",100 % of control
same,T/C,[8],100 % of control
same,T/C,"dose: 400.0 mg/kg/injection, schedule: Q01DX009 (ip), vehicle: saline",110 % of control
same,T/C,[4],91 % of control
Cc1nn(CCO)c(-c2ccccc2)c1-n1on1-c1c(C)nn(CCO)c1-c1ccccc1,T/C,[5],101 % of control
Oc1ccc(Br)c2cccnc12,T/C,"dose: 25.0 mg/kg/injection, schedule: Q01DX009 (ip), vehicle: Klucel (hydroxypropylcellulose) (HPC)",91 % of control
same,T/C,"dose: 50.0 mg/kg/injection, schedule: Q01DX009 (ip), vehicle: Klucel (hydroxypropylcellulose) (HPC)",111 % of control
same,T/C,"dose: 100.0 mg/kg/injection, schedule: Q01DX009 (ip), vehicle: Klucel (hydroxypropylcellulose) (HPC)",98 % of control
same,T/C,"dose: 200.0 mg/kg/injection, schedule: Q01DX009 (ip), vehicle: Klucel (hydroxypropylcellulose) (HPC)",102 % of control
same,T/C,"dose: 200.0 mg/kg/injection, schedule: Q01DX010 (ip), vehicle: saline",100 % of control
CCc1ccc(NC(=O)N(CCCl)N=O)cc1,T/C,"dose: 0.62 mg/kg/injection, schedule: Q04DX003 (ip), vehicle: Klucel (hydroxypropylcellulose) (HPC)",109 % of control
same,T/C,"dose: 0.8 mg/kg/injection, schedule: Q01DX009 (ip), vehicle: gum acacia",158 % of control
same,T/C,"dose: 1.3 mg/kg/injection, schedule: Q01DX009 (ip), vehicle: gum acacia",154 % of control
same,T/C,"dose: 2.0 mg/kg/injection, schedule: Q01DX009 (ip), vehicle: gum acacia",153 % of control and 187 % of control
same,T/C,"dose: 3.0 mg/kg/injection, schedule: Q01DX009 (ip), vehicle: gum acacia",176 % of control
same,T/C,"dose: 4.5 mg/kg/injection, schedule: Q01DX009 (ip), vehicle: gum acacia",196 % of control
same,T/C,"dose: 5.0 mg/kg/injection, schedule: Q04DX003 (ip), vehicle: Klucel (hydroxypropylcellulose) (HPC)",177 % of control and 204 % of control
same,T/C,"dose: 7.0 mg/kg/injection, schedule: Q01DX009 (ip), vehicle: gum acacia",230 % of control and 236 % of control
same,T/C,"dose: 8.0 mg/kg/injection, schedule: Q04DX003 (ip), vehicle: Klucel (hydroxypropylcellulose) (HPC)",214 % of control
same,T/C,"dose: 11.0 mg/kg/injection, schedule: Q01DX009 (ip), vehicle: gum acacia",250 % of control
same,T/C,"dose: 12.0 mg/kg/injection, schedule: Q04DX003 (ip), vehicle: Klucel (hydroxypropylcellulose) (HPC)",238 % of control
same,T/C,"dose: 17.0 mg/kg/injection, schedule: Q01DX009 (ip), vehicle: gum acacia",196 % of control
same,T/C,"dose: 18.0 mg/kg/injection, schedule: Q04DX003 (ip), vehicle: Klucel (hydroxypropylcellulose) (HPC)",233 % of control and 285 % of control
same,T/C,"dose: 25.0 mg/kg/injection, schedule: Q01DX009 (ip), vehicle: gum acacia",212 % of control
same,T/C,"dose: 25.0 mg/kg/injection, schedule: Q04DX003 (ip), vehicle: Klucel (hydroxypropylcellulose) (HPC)",300 % of control
same,T/C,"dose: 37.0 mg/kg/injection, schedule: Q04DX003 (ip), vehicle: Klucel (hydroxypropylcellulose) (HPC)",300 % of control
COC(=O)C(CC(C)C)NC(=O)C(Cc1ccc(Oc2ccc([N+](=O)[O-])cc2[N+](=O)[O-])cc1)NC=O (stereo not drawn),T/C,"dose: 25.0 mg/kg/injection, schedule: Q04DX003 (ip), vehicle: water",95 % of control
same,T/C,"dose: 300.0 mg/kg/injection, schedule: Q04DX003 (ip), vehicle: water",99 % of control
same,T/C,"dose: 400.0 mg/kg/injection, schedule: Q04DX003 (ip), vehicle: water",96 % of control and 98 % of control and 112 % of control
CC(=O)c1nc2c(N)nc(N)nc2nc1C,T/C,"dose: 100.0 mg/kg/injection, schedule: Q04DX003 (ip), vehicle: saline with Tween-80",92 % of control
same,T/C,[2],111 % of control
same,T/C,[3],106 % of control
CCN(CC)c1ccc(/C=C/c2ccnc3ccccc23)cc1,T/C,"dose: 1.56 mg/kg/injection, schedule: Q01DX009 (ip), vehicle: saline with Tween-80",95 % of control
same,T/C,"dose: 3.13 mg/kg/injection, schedule: Q01DX009 (ip), vehicle: saline with Tween-80",105 % of control
same,T/C,"dose: 6.25 mg/kg/injection, schedule: Q01DX009 (ip), vehicle: saline with Tween-80",90 % of control
O=C(O)CC/C(=N/OCc1cc2c(cc1Cl)OCO2)C(=O)O,T/C,"dose: 100.0 mg/kg/injection, schedule: Q04DX003 (ip), vehicle: saline sonified",100 % of control
same,T/C,"dose: 200.0 mg/kg/injection, schedule: Q04DX003 (ip), vehicle: saline sonified",100 % of control
same,T/C,"dose: 400.0 mg/kg/injection, schedule: Q04DX003 (ip), vehicle: saline sonified",109 % of control
CC1CN1P1(N2CC2C)=NP(N2CC2C)(N2CC2C)=NP(N2CC2C)(N2CC2C)=N1 (stereo not drawn),T/C,"dose: 4.4 mg/kg/injection, schedule: Q01DX009 (ip), vehicle: saline",122 % of control
same,T/C,"dose: 6.6 mg/kg/injection, schedule: Q01DX009 (ip), vehicle: saline",124 % of control
same,T/C,"dose: 15.0 mg/kg/injection, schedule: Q01DX009 (ip), vehicle: saline",161 % of control
same,T/C,"dose: 16.5 mg/kg/injection, schedule: Q01DX009 (ip), vehicle: saline",155 % of control
same,T/C,[1],160 % of control and 164 % of control
same,T/C,"dose: 25.0 mg/kg/injection, schedule: Q04DX003 (ip), vehicle: saline",114 % of control
same,T/C,"dose: 37.5 mg/kg/injection, schedule: Q01DX009 (ip), vehicle: saline",169 % of control
same,T/C,"dose: 50.0 mg/kg/injection, schedule: Q01DX009 (ip), vehicle: saline",203 % of control
same,T/C,[7],166 % of control and 214 % of control
same,T/C,[8],102 % of control
CCN(CC)CCC(=O)c1ccccc1,T/C,[5],95 % of control
CO[C@H]1CC[C@@]2(C)C(=CC[C@H]3[C@@H]4C[C@H](O)C[C@@]4(C)CC[C@@H]32)C1,T/C,"dose: 12.5 mg/kg/injection, schedule: Q01DX010 (ip), vehicle: other",105 % of control
same,T/C,"dose: 25.0 mg/kg/injection, schedule: Q01DX010 (ip), vehicle: other",90 % of control and 120 % of control
COc1cc(/C=N\Nc2ccccc2[N+](=O)[O-])cc(OC)c1OC,T/C,[6],95 % of control
same,T/C,"dose: 200.0 mg/kg/injection, schedule: Q01DX009 (ip), vehicle: saline with Tween-80",104 % of control
same,T/C,"dose: 400.0 mg/kg/injection, schedule: Q01DX009 (ip), vehicle: saline with Tween-80",104 % of control
